Among the data in ChEMBL document CHEMBL1146751, “Threshold interaction energy of NRTI's (2'-deoxy 3'-substituted nucleosidic analogs of reverse transcriptase inhibitors) to undergo competitive inhibition” (Bioorg Med Chem Lett, 2004) are IC50 values, retold here.

For orientation: IC50 means the concentration at which inhibition is half-maximal. A lower IC50 goes with higher potency.

Structures can show the parent of a compound that is named as a salt.

The experiment relates to MT4. The experiment is described as follows: Potency against […] nucleoside reverse transcriptor was determined in MT-4 cells. Type of experiment: functional, cell-based. The conditions noted are these: Homo sapiens.
`CCOC(=O)c1cccn1S(=O)(=O)c1cc(Cl)ccc1N` had an IC50 of 400 nM.

As to `Cc1ncc([N+](=O)[O-])n1CCOC(c1ccccc1)c1ccccc1`, the IC50 amounted to 50 nM.

Compound `Nc1[nH]cnc2ncnc1-2` [ADENINE] returned an IC50 of 12000 nM.

The compound `O=C1Nc2ccc(Cl)cc2[C@@](C#CC2CC2)(C(F)(F)F)O1` [EFAVIRENZ] displayed an IC50 of 40 nM. This IC50 lies about 300-fold lower than the previous one.

In turn, `Cc1ccnc2c1NC(=O)c1cccnc1N2C1CC1` [NEVIRAPINE] gave an IC50 of 600 nM. This IC50 is about 15-fold higher than that of the compound before.

`S=C(NCCc1ccccn1)Nc1ccc(Br)cn1` [TROVIRDINE HYDROCHLORIDE] came in with an IC50 of 800 nM.

The compound `Nc1ccn([C@H]2CC[C@@H](CO)O2)c(=O)n1` [ZALCITABINE] registered an IC50 of 1600 nM.

Take `Cc1cn([C@H]2C[C@H](N=[N+]=[N-])[C@@H](CO)O2)c(=O)[nH]c1=O` [ZIDOVUDINE]: the midpoint of inhibition, the IC50, lay at 40 nM.
